From patent US20230295130A1, “COMPOUND USEFUL AS CDK7 KINASE INHIBITOR AND USE THEREOF” (TYK MEDICINES, INC., priority 2020, published 2023)

Experiments:
[1] = tested on: breast cancer cells MDA-MB 231; assay: Cell anti-proliferation experiment, MTT (Table 2); type: cell-based; conditions: Homo sapiens, MDA-MB-231, 72 h, incubate 3 days
Source text: (§1) Human breast cancer cells MDA-MB 231, MDA-MB453, ovarian cancer cells OVCAR3 and A2780, colorectal cancer cells HCT-116 and WiDr, and lung cancer cell Calu-6 were purchased from BNCC. DMEM medium (Bio-Channel), DMSO (dimethyl sulfoxide), MTT (thiazole blue), 0.25% EDTA-Tripsin (pancreatin digestive juice), 1×PBS (phosphate buffer, PH7.2), 96-well plate (Corning), fetal bovine serum (FBS), 10,000 U/mL penicillin-G/streptomycin, high-speed freezing centrifuge (EPPENDORF 5810R), enzyme-linked immunosorbent assay (Tecan Spark).
(§2) 1. Cell Plating • A) Tumor cells were cultured to 80-90% density in DMEM (high sugar, containing 10% FBS and 100 U/mL penicillin-G/streptomycin) at 37° C., 5% CO2 and saturated humidity. • B) The culture medium was removed from the 10 cm culture dish. • C) Cells were washed with 10 ml 1×PBS. • D) 4 ml of 0.25% EDTA-Tripsin was added to an incubator to digest pancreatin for 5 minutes at 37° C. and 5% CO2, transferred to a 15 ml centrifuge tube, centrifuged for 5 minutes at 200 g, and supernatant was discarded to obtain cell precipitation. • E) The cell precipitation was resuspended with 4 ml DMEM medium, counted and adjusted to 50,000 cells/ml. • F) Cell suspension was added to a 96-well plate with a volume of 100 μL per well and cultured overnight in a 5% CO2 incubator at 37° C.
(§3) Compound Dilution • A) Preparing the tested compound gradient dilution solution: the tested compounds were prepared into 10 mM and 1 mM storage solution respectively. Firstly, 1 μl and 0.5 μl of 10 mM storage solution were dissolved in 1 ml of DMSO-free culture solution, respectively, to obtain diluted compounds with concentrations of 10 and 5 μM. Then, 1.5 μl of 1 mM storage solution was dissolved in 1.5 ml of DMSO-free culture solution to obtain a dilution compound with a concentration of 1 μM, and then diluted with a 3-fold continuous gradient with […] culture solution for a total of 7 concentrations. The concentrations of all 10 diluted compounds mentioned above were as follows: • 10 μM, 5 μM, 1 μM, 333.33 nM, 111.11 nM, 37.03 nM, 12.35 nM, 4.15 nM, 1.37 nM, 0.46 nM • B) After full mixing, 100 μL of culture compound solution was taken to replace the culture solution in the cell culture plate, with 4 duplicated wells at each concentration; • C) The cells were transferred to incubator to incubate for 3 days.
(§4) 3. MTT Detection • A) The cell culture plate was taken out and added with 5 mg/ml MTT 10 μL in the biosafety cabinet; • B) The cell culture plate was put back into the incubator and continued to incubate for 3 hours; • C) The cell culture plate was taken out to remove the culture solution, 100 μL isopropanol (containing 0.4 mM HCl, 0.1% NP-40) was added, shaking at room temperature for 30 minutes; • D) The absorbance value was measured at 570 nm on TECAN enzyme linked immunosorbent assay.

[2] = tested on: lung cancer cell Calu-6; assay: Cell anti-proliferation experiment, MTT (Table 2); type: cell-based; conditions: Homo sapiens, Calu-6, 72 h, incubate 3 days
Source text: as §1, §2, §3, §4

[3] = tested on: breast cancer cells MDA-MB453; assay: Cell anti-proliferation experiment, MTT (Table 2); type: cell-based; conditions: Homo sapiens, MDA-MB-453, 72 h, incubate 3 days
Source text: as §1, §2, §3, §4

[4] = tested on: ovarian cancer cells OVCAR3; assay: Cell anti-proliferation experiment, MTT (Table 2); type: cell-based; conditions: Homo sapiens, OVCAR-3, 72 h, incubate 3 days
Source text: as §1, §2, §3, §4

[5] = biological target: CDK7/Cyclin H/MAT1 kinase (Homo sapiens (Human), UniProt P50613); assay: Enzyme activity test, mobility shift assay (Table 1); type: biochemical; conditions: 2 mM ATP; pre-incubated 0 and 60 minutes
CDK7/Cyclin H/MAT1 kinase, sequence (P50613 whole entry, the tested form may be a part): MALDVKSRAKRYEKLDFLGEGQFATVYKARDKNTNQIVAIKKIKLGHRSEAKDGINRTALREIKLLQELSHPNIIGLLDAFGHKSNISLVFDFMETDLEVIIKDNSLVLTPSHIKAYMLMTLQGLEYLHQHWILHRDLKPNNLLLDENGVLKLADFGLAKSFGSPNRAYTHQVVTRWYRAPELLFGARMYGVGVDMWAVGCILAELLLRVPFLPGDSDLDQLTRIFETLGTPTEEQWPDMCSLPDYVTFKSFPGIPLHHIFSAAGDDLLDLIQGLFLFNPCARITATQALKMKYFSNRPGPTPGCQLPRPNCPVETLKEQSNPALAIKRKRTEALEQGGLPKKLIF
CDK7/Cyclin H/MAT1 kinase, sequence (P51946 whole entry partner, the tested form may be a part): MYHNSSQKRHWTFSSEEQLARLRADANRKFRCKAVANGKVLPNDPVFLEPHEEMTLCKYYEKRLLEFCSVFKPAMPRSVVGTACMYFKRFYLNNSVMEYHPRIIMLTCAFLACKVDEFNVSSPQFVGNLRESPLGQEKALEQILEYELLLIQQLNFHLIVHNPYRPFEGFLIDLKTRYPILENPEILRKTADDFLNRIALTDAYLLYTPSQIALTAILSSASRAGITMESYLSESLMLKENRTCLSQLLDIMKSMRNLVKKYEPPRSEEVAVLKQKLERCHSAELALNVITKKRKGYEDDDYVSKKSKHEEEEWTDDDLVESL
CDK7/Cyclin H/MAT1 kinase, sequence (P51948 whole entry partner, the tested form may be a part): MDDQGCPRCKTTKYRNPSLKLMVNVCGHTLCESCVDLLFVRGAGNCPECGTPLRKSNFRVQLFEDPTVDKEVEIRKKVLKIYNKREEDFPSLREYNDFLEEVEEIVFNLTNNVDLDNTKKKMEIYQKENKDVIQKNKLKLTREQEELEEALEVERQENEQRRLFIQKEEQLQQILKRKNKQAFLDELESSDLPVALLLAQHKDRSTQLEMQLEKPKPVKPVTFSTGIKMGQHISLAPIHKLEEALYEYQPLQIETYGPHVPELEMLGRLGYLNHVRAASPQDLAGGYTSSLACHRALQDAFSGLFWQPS

[6] = biological target: CDK12 (aa686-1082)/Cyclin K (Homo sapiens (Human), UniProt Q9NYV4); assay: as above; type: biochemical; conditions: 2 mM ATP; read-out: CDK12 kinase IC50
CDK12 (aa686-1082)/Cyclin K, sequence (Q9NYV4 686-1082): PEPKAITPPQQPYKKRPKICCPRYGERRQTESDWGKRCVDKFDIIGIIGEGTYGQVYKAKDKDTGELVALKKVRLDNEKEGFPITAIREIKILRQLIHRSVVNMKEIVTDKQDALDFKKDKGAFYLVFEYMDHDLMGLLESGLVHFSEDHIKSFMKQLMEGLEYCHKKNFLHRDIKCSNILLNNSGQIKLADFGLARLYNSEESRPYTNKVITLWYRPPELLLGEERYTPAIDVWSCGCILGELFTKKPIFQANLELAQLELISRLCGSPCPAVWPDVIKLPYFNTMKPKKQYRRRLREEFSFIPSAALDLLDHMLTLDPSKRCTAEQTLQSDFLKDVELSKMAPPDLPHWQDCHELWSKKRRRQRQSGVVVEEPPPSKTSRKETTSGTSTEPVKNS
CDK12 (aa686-1082)/Cyclin K, sequence (O75909 whole entry partner, the tested form may be a part): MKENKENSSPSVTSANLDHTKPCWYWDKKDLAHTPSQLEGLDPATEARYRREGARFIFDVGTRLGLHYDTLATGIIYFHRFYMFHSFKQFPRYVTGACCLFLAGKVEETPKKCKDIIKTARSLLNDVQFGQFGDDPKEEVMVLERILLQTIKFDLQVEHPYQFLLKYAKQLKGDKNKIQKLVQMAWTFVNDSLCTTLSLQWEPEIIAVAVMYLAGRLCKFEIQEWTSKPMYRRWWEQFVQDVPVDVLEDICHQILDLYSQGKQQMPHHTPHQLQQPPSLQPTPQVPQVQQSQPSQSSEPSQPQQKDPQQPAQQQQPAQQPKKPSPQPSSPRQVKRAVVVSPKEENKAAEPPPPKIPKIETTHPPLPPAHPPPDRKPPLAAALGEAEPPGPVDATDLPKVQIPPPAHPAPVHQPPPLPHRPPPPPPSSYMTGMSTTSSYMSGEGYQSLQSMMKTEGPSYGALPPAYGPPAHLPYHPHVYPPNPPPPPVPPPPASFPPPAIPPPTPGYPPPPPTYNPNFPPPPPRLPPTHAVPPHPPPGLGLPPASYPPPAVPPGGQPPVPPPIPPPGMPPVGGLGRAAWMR
In short: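 Mobility shift kinase assay on CDK9/Cyclin T1 and CDK12 (aa686-1082)/Cyclin K. Ten-point 3-fold dilution series started from a 0.5 mM intermediate solution in DMSO, with compound–enzyme pre-incubation of 0 or 60 min, in duplicate. Staurosporine served as positive control.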

[7] = biological target: CDK9/Cyclin Tl (Homo sapiens (Human), UniProt P50750); assay: as above; type: biochemical; conditions: 2 mM ATP; read-out: CDK9 kinase IC50
CDK9/Cyclin Tl, sequence (P50750 whole entry): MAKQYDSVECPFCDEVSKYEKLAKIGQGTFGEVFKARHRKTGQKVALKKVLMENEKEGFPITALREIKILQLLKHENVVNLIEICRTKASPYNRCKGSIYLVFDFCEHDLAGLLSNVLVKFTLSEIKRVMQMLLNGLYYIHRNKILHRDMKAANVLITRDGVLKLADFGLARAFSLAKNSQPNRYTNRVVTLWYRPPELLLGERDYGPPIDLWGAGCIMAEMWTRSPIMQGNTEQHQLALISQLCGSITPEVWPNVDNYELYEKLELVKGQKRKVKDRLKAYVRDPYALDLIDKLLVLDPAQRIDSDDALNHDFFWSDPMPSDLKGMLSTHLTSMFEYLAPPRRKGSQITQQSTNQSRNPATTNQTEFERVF
CDK9/Cyclin Tl, sequence (O60563 whole entry partner): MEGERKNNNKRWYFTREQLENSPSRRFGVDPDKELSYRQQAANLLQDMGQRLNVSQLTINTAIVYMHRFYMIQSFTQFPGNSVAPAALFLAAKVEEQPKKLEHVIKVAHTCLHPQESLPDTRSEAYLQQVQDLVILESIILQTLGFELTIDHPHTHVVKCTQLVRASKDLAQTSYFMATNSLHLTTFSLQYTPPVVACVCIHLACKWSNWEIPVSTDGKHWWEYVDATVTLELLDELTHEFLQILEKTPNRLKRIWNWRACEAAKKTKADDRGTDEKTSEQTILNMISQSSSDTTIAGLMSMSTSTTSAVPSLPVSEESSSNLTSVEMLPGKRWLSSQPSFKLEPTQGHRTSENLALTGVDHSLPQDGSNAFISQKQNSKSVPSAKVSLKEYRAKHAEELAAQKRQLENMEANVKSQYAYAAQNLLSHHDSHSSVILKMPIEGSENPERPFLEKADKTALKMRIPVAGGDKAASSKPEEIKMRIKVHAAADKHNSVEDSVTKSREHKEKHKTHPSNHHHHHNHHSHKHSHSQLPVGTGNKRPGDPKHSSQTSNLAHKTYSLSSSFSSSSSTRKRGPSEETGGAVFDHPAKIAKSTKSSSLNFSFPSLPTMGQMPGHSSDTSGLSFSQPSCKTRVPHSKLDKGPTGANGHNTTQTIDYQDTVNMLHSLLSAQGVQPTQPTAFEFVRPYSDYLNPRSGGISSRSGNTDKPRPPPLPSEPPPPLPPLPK
In short: (§5)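 Human CDK9/Cyclin T1 and CDK2/Cyclin E1 activity measured by mobility shift assay. Compounds tested as 10-point, 3-fold dilution series starting at 0.5 mM (diluted from 10 mM DMSO stock), in duplicate, with 0 min or 60 min compound–enzyme pre-incubation.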

[8] = biological target: CDK2/Cyclin El (Homo sapiens (Human), UniProt P24941); assay: as above; type: biochemical; conditions: 2 mM ATP; read-out: CDK2 kinase IC50
In short: as §5

[9] = tested on: colorectal cancer cells HCT-116; assay: Cell anti-proliferation experiment, MTT (Table 2); type: cell-based; conditions: Homo sapiens, HCT-116, 72 h, incubate 3 days
Source text: as §1, §2, §3, §4

[10] = tested on: colorectal cancer cells WiDr; assay: Cell anti-proliferation experiment, MTT (Table 2); type: cell-based, human; conditions: Homo sapiens, WiDr, 72 h, incubate 3 days
Source text: as §1, §2, §3, §4

[11] = tested on: ovarian cancer cells A2780; assay: Cell anti-proliferation experiment, MTT (Table 2); type: cell-based, human; conditions: Homo sapiens, A2780, 72 h, incubate 3 days
Source text: as §1, §2, §3, §4

| IC50 [1] [nM] | IC50 [2] [nM] | IC50 [3] [nM] | IC50 [4] [nM] | IC50 [5] [nM] | IC50 [6] [nM] | IC50 [7] [nM] | IC50 [8] [nM] | IC50 [9] [nM] | IC50 [10] [nM] | IC50 [11] [nM] | Compound |
| --- | --- | --- | --- | --- | --- | --- | --- | --- | --- | --- | --- |
| 471 | 209 | 116 | 197 | < 50 | > 500 | > 500 | > 500 | – | – | – | COC(=O)Nc1ccc2c(-c3nc(N[C@H]4CCC(C)(C)NC4)ncc3C(F)(F)F)c[nH]c2c1Br [Example T-36] |
| 52.7 | 40.1 | 10.8 | 25.1 | < 50 | > 500 | > 500 | 50 to 500 | 47.8 | 13.8 | 7.65 | COC(=O)Nc1ccc2c(-c3nc(N[C@H]4CCCNC4)ncc3C(F)(F)F)c[nH]c2c1OC [Example T-37] |
| 144 | 114 | 53.1 | 69.8 | < 50 | > 500 | > 500 | > 500 | 35.3 | 16.3 | 14.2 | COC(=O)Nc1ccc2c(-c3nc(N[C@H]4CCCNC4)ncc3C(F)(F)F)c[nH]c2c1Cl [Example T-79] |
| 145 | 68.9 | 51.9 | 41.8 | < 50 | > 500 | > 500 | > 500 | 62.5 | 12.2 | 7.97 | COC(=O)Nc1ccc2c(-c3nc(N[C@H]4CCCNC4)ncc3C(F)(F)F)c[nH]c2c1Br [Example T-01] |
| 119 | 107 | 17.7 | 51.1 | < 50 | > 500 | > 500 | > 500 | 89.2 | 28.3 | 16.1 | COC(=O)Nc1ccc2c(-c3nc(N[C@H]4CCCNC4)ncc3C(F)(F)F)c[nH]c2c1C [Example T-52] |
| 75.5 | 57 | 23.8 | 38.8 | < 50 | > 500 | > 500 | > 500 | 55.4 | 6.35 | 12.5 | COCCOC(=O)Nc1ccc2c(-c3nc(N[C@H]4CCCNC4)ncc3C(F)(F)F)c[nH]c2c1Br [Example T-62] |
